In article PMC12010937, “Evaluation of FXR Activity in Pollutants Identified in Sewage Sludge and Subsequent in Vitro and in Vivo Characterization of Metabolic Effects of Triphenyl Phosphate” (Environmental Health Perspectives, 2025):
pIC50: −log10 of the molar value. Values joined by “and” are separate entries in the source; they are usually repeats but may differ in a detail not shown here. Equal values may be shown once. Where a name gives a salt, the structure may show the parent alone. Read-outs that look alike come from different tables or passages of the source.

Columns and labels:
[1] = molecular target: T1, human FXR-LBD (GST-FXR-LBD) (Homo sapiens, UniProt Q96RI1); assay: HTRF coactivator recruitment assay, agonist mode; format: biochemical
T1 construct: the human FXR-LBD (residues 234–472) was expressed as a GST fusion protein GST-FXR-LBD; made in house; host or cells: E. coli BL21(DE3)
T1 sequence (Q96RI1 234-472 isoform Q96RI1-2): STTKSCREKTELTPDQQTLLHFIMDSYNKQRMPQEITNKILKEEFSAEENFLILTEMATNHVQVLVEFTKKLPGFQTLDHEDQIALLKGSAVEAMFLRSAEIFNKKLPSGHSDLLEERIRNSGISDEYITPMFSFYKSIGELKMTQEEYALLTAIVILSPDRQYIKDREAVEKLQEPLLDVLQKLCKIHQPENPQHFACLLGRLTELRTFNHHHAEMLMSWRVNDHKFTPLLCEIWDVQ

[2] = molecular target: T1, human FXR-LBD (GST-FXR-LBD); assay: HTRF coactivator recruitment assay, antagonist mode (in the presence of 50 μM CDCA); format: biochemical; details: for activity at 1.95 µM / activity at 3.9 µM / activity at 31.25 µM / activity at 62.5 µM / activity at 250 µM / activity at 0.98 µM / activity at 7.8 µM / activity at 125 µM / activity at […]: read-out: Relative antagonist activity (%); for Relative activity, antagonist mode: 50 μM compound in the presence of 50 μM CDCA, standardized against positive control DY268 (50 μM = 100%); for pIC50: read-out: IC50, inhibition of CDCA-induced coactivator recruitment to FXR
[3] = molecular target: T2, FXR (pCDNA3.1-hFXR, FXRE-luc) (Homo sapiens, UniProt Q96RI1); assay: cell-based; format: cell-based
T2 construct: host or cells: HEK 293T
T2 sequence (Q96RI1 1-486): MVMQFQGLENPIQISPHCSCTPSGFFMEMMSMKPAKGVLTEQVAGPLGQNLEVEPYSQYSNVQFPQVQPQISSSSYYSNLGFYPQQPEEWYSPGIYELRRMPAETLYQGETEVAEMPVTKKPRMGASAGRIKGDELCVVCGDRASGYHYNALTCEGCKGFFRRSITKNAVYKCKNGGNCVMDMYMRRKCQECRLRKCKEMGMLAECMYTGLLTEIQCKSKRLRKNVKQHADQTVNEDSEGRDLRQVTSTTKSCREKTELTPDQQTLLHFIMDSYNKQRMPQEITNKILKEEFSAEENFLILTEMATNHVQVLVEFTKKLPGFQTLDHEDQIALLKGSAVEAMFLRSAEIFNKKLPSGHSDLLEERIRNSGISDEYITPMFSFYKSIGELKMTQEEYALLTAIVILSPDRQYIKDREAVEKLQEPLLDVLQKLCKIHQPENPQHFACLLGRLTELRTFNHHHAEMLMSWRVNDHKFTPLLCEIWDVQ

[4] = 1.95 μM compound + 50 μM CDCA, replicates
[5] = 3.90 μM compound + 50 μM CDCA, replicates
[6] = 31.25 μM compound + 50 μM CDCA, replicates
[7] = 62.50 μM compound + 50 μM CDCA, replicates
[8] = 250.00 μM compound + 50 μM CDCA, standardized to DMSO and 50 μM CDCA, replicates
[9] = 50 μM compound, standardized against positive control CDCA (50 μM = 100%)
[10] = 0.98 μM compound + 50 μM CDCA, replicates
[11] = 7.80 μM compound + 50 μM CDCA, replicates
[12] = 125.00 μM compound + 50 μM CDCA, replicates
[13] = […] compound + 50 μM CDCA, replicates
[14] = 10 μM and 25 μM, in the presence of 50 μM CDCA, HEK 293T
[15] = 10 μM compound in the presence of 50 μM CDCA, DMSO 0%, 50 μM CDCA 100%, HEK 293T, replicates
[16] = 25 μM compound in the presence of 50 μM CDCA, DMSO 0%, 50 μM CDCA 100%, HEK 293T, replicates

CC(=O)c1cc2c(cc1C)C(C)(C)C(C)CC2(C)C (stereo not drawn) [AHTN, tonalid]
Relative activity, agonist mode [1]: 2.19% | activity at 1.95 µM [2, 4]: 96.2% | activity at 3.9 µM [2, 5]: 93.9% | activity at 31.25 µM [2, 6]: 80.9% | Relative activity, antagonist mode [2]: 48.54% | activity at 62.5 µM [2, 7]: 61.4% | activity at 250 µM [2, 8]: 31.2% | pIC50 [2]: 4.23 | activity at 0.98 µM [2]: 93.5% | activity at 7.8 µM [2]: 94.1% | activity at 125 µM [2]: 41.4% | activity at […] [2]: 89.3% | Luciferase activity compared with DMSO control (in words) [3]: significantly less luciferase activity | activity at 25 µM ([3]; HEK-293T, read-out: Relative luciferase activity (%)): 40.1%

CCCCOC(=O)CC(CC(=O)OCCCC)(OC(C)=O)C(=O)OCCCC [ATBC, acetyl tributyl citrate]
Relative activity, agonist mode [1, 9]: 2.49% | Relative activity, antagonist mode [2]: 12.58%

CC(C)(C)c1cc(C=O)cc(C(C)(C)C)c1O [BHT-C, 3,5-Ditert-butyl-4-hydroxybenzaldehyde]
Relative activity, agonist mode [1, 9]: 0.19% | Relative activity, antagonist mode [2]: 6.36%

CCCCC(CC)COC(=O)c1ccccc1C(=O)OCC(CC)CCCC (stereo not drawn) [DEHP, bis(2-ethylhexyl) phthalate]
Relative activity, agonist mode [1]: 0.27% | Relative activity, antagonist mode [2]: 4.48%

COc1cccc(Cn2cc(C(=O)Nc3ccc(C)c(S(=O)(=O)N4CCOCC4)c3)c(-c3ccc(C)cc3)n2)c1 [DY268]
Relative activity, antagonist mode [2]: 100.00% | Relative luciferase activity (%) ([3]; 0.001 μM, dose-response, replicates): 91.11% and 96.02% and 92.43% | Relative luciferase activity (%) ([3]; 0.01 μM, dose-response, replicates): 84.90% and 84.00% and 97.07% | Relative luciferase activity (%) ([3]; 0.05 μM, dose-response, replicates): 69.60% and 78.44% and 89.94% | Relative luciferase activity (%) ([3]; 0.1 μM, dose-response, replicates): 57.18% and 63.12% and 63.84% | Relative luciferase activity (%) ([3]; 0.5 μM, dose-response, replicates): 12.17% and 13.75% and 19.14% | Relative luciferase activity (%) ([3]; 1 μM, dose-response, replicates): -1.72% and -0.13% and 6.23% | Relative luciferase activity (%) ([3]; 5 μM, dose-response, replicates): -18.25% and -19.25% and -13.03% | Relative luciferase activity (%) ([3]; 10 μM, dose-response, replicates): -15.95% and -18.33% and -14.15% | Rate of FXR inhibition at the maximum exposure concentration ([3]; HEK 293T DLR assay, maximum exposure concentration): 116.14% | pIC50 ([3]; HEK 293T cell-based DLR assay, read-out: IC50, inhibition of FXR transcriptional activity): 6.60

O=C1Nc2ccc(Cl)cc2[C@@](C#CC2CC2)(C(F)(F)F)O1 [EFV, efavirenz]
Relative activity, agonist mode [1, 9]: 1.60% | Relative antagonist activity (%) [2, 10]: 83.56% and 97.08% | activity at 0.98 µM [2, 10]: 100% | Relative antagonist activity (%) [2, 4]: 96.79% and 93.64% | activity at 1.95 µM [2, 4]: 101% | Relative antagonist activity (%) [2, 5]: 97.17% and 94.87% | activity at 3.9 µM [2, 5]: 94.6% | Relative antagonist activity (%) [2, 11]: 92.66% and 89.45% | activity at 7.8 µM [2, 11]: 91% | Relative antagonist activity (%) [2, 6]: 63.55% and 62.84% | activity at 31.25 µM [2, 6]: 61.1% | Relative activity, antagonist mode [2]: 80.64% | Relative antagonist activity (%) [2, 7]: 18.58% and 19.89% | activity at 62.5 µM [2, 7]: 20.8% | Relative antagonist activity (%) [2, 12]: -1.08% and -0.91% and -0.84% | Relative antagonist activity (%) [2, 8]: -2.04% and -2.11% and -2.16% | activity at […] [2, 13]: 82% | pIC50 [2]: 4.39 | Luciferase activity compared with DMSO control (in words) [3, 14]: significantly less luciferase activity | Relative luciferase activity (%) [3, 15]: 29.3% and 36.3% | Relative luciferase activity (%) [3, 16]: 36.4% and 33.0% and 15.9% | activity at 10 µM ([3]; HEK-293T, 10 μM compound in the presence of 50 μM CDCA, DMSO 0%, 50 μM CDCA 100%, HEK 293T, replicates, read-out: Relative luciferase activity (%)): 26.9%

N#Cc1nn(-c2c(Cl)cc(C(F)(F)F)cc2Cl)c(N)c1S(=O)(=O)C(F)(F)F [FIP-S, fipronil sulfone]
Relative activity, agonist mode [1]: 2.06% | Relative activity, antagonist mode [2]: 13.98%

CC1COC(=O)c2cc3c(cc21)C(C)(C)C(C)C3(C)C (stereo not drawn) [GAX, galaxolidone]
Relative activity, agonist mode [1]: 0.32% | Relative activity, antagonist mode [2]: 14.46%

C/C=C1\C(=O)C[C@H]2[C@@H]3CCC4=CC(=O)CC[C@]4(C)[C@H]3CC[C@]12C [GS, guggulsterone]
activity at 0.01 µM ([3]; HEK-293T, 0.01 μM, dose-response, replicates, read-out: Relative luciferase activity (%)): 96.6% | activity at 0.1 µM ([3]; HEK-293T, 0.1 μM, dose-response, replicates, read-out: Relative luciferase activity (%)): 81% | activity at 0.5 µM ([3]; HEK-293T, 0.5 μM, dose-response, replicates, read-out: Relative luciferase activity (%)): 81% | activity at 1 µM ([3]; HEK-293T, 1 μM, dose-response, replicates, read-out: Relative luciferase activity (%)): 79.6% | activity at 5 µM ([3]; HEK-293T, 5 μM, dose-response, replicates, read-out: Relative luciferase activity (%)): 66.4% | activity at 10 µM ([3]; HEK-293T, 10 μM, dose-response, replicates, read-out: Relative luciferase activity (%)): 53.9% | activity at 25 µM ([3]; HEK-293T, 25 μM, dose-response, replicates, read-out: Relative luciferase activity (%)): 30.5% | activity at 50 µM ([3]; HEK-293T, 50 μM, dose-response, replicates, read-out: Relative luciferase activity (%)): 29.9%

Clc1ccc(COC(Cn2ccnc2)c2ccc(Cl)cc2Cl)c(Cl)c1 (stereo not drawn) [MCZ, miconazole]
Relative activity, agonist mode [1, 9]: 0.00% | activity at 0.98 µM [2, 10]: 101% | activity at 1.95 µM [2, 4]: 96.5% | activity at 3.9 µM [2, 5]: 92.9% | activity at 7.8 µM [2, 11]: 77.8% | activity at 31.25 µM [2, 6]: 31.7% | activity at 62.5 µM [2, 7]: 15.9% | activity at 125 µM [2, 12]: 4.54% | activity at 250 µM [2, 8]: 2.51% | activity at […] [2, 13]: 61.6% | pIC50 [2]: 4.69 | Luciferase activity compared with DMSO control (in words) [3, 14]: significantly less luciferase activity | Relative luciferase activity (%) [3, 15]: 93.6% and 60.3% and 85.8% | Relative luciferase activity (%) [3, 16]: 77.5% and 67.2% and 91.8%

CCCCCCCCCCCCCCCC(=O)NCCO [PEA, palmitoyl ethanolamide]
Relative activity, agonist mode [1, 9]: 0.57% | Relative activity, antagonist mode [2]: 3.94%

O=C(Nc1ccc(Cl)cc1)Nc1ccc(Cl)c(Cl)c1 [TCC, triclocarban]
Relative activity, agonist mode [1]: 0.44% | Relative activity, antagonist mode [2]: 10.80%

CCCCC(CC)COP(=O)(OCC(CC)CCCC)OCC(CC)CCCC (stereo not drawn) [TEHP, tris(2-ethylhexyl) phosphate]
Relative activity, agonist mode [1]: 0.00% | Relative activity, antagonist mode [2]: 17.25%

CC(C)(C)CC(C)(C)c1ccc(O)c(-n2nc3ccccc3n2)c1 [UV329, octrizole]
Relative activity, agonist mode [1, 9]: 0.085% | Relative activity, antagonist mode [2]: 18.06%
